Test results from patent publication US7851479B2, “Use of pyrimidinedione derivative for preventing or treating hepatitis C” (priority 2006, dated 2010).
pEC50: −log10 of the molar value. Read-outs that look alike come from different tables or passages of the source.

How the values were obtained:
[1] = tested on: bovine viral diarrhea virus (BVDV); test: anti-BVDV drug screening assay (CPE inhibition, MTS staining); type: cell-based; conditions: for pEC50: Bovine viral diarrhea virus isolates and strains, 144 h, read-out: MDBK/BVDV EC50; for TI (TC50/EC50): therapeutic index, MDBK TC50 / BVDV EC50
Protocol: To assess the effectiveness of the pyrimidinedione derivative used in the present invention as a drug for preventing or treating hepatitis C, an anti-BVDV drug screening assay was conducted with bovine viral diarrhea virus (BVDV). BVDV, a virus having a genome, reproduction cycle and infection type similar to hepatitis C virus, was employed because hepatitis C virus can not be subjected to […] cultivation.
(§1) One day before the screening, MDBK cell line (Mardin-Darby bovine kidney, ATTC CCL22) which had been subcultured previously was trypsinized and spread on a plate, followed by counting the cell colonies formed. Then, equal amount of DMEM (Dulbecco's Modified Eagle's Medium) and Ham's F-12 were mixed, and 10% fetal bovine serum was added to the resulting mixture to prepare a tissue culture medium. The MDBK cells were inoculated to the medium at a concentration of 6×10^4 cells/ml, and then the resulting cell solution was added to a 96-well flat-bottomed plate in an amount of 100 μl per well.
Meanwhile, BVDV (ATCC VR534), which had been stored in a −80° C. freezer at a pre-determined concentration, was transferred to a biological safety cabinet and allowed to thaw at room temperature. The virus was diluted with the tissue culture medium in an sufficient amount for the virus in each well to induce 85 to 95% cell death 6 days after the virus infection.
(§2) Specified pyrimidinedione derivatives (SAMJIN Pharmaceuticals) were prepared as test compounds and a conventional drug for treating hepatitis C, Ribavirin (Sigma) was used as a comparative drug. Each of the test compounds was dissolved in DMSO to prepare a sample solution. Then, the resulting sample solution was diluted with a mixture prepared by mixing equal amount of DMEM and Ham's F-12 in accordance with the three one-log series dilution to prepare sample dilutes.
(§3) One day after adding MDBK cells to the 96-well plate, the culture solution on the plate was removed and each of the sample dilutes obtained step 2 was added thereto, adjusting the final concentration thereof to 1 to 100 μg/ml. The comparative drug, Ribavirin, was added to each of the control wells of the palte at a concentration of 1 to 100 μg/ml.
(§4) The well-plate comprising ‘cell control group well’ containing MDBK cell only; ‘virus control well’ containing MDBK cell and BVDV virus; ‘drug toxicity control well’ containing MDBK cell and sample compounds for assessing the cell toxicity of each sample; ‘drug calorimetric control well’ containing only one of the sample compounds; and ‘experimental group well’ containing MDBK cell, BVDV virus and one of the sample compounds.
(§5) The well-plate had been placed in a 5% CO2 incubator at 37° C. for 6 days, and then, analyzed with Cell Proliferation Assay kit (CellTiter96® AQUEOUS one solution, Promega). The analysis involves the step of counting live cells by a colorimetric method and the kit contains MTS, a new tetrazolium compound which forms a stable solution when the test compounds are added, and PES, an electron coupling agent. In a cell having vigorous metabolism, NADPH or NADH generated by mitochodrial dehydrogenase renders the soluble MTS to a form of […] formazan crystals. Therefore, the amount of formazan crystal is directly proportional to the number of live cells in a medium.
(§6) The CellTiter96® AQUEOUS one solution reagent of 10 μl was added to each well of the plate and cultivated in a incubator at 37° C. for 4 hours. Then, the plate was covered with an adhesive plate sealer, mixing formazan crystals. Absorbance of each well was measured by Molecular Devices Vmax plate reader (Molecular Devices) at 490 nm.
The toxicity of each sample compound was analyzed with a in-house computer program and the cytopathic effect (CPE), followed by calculating % cell activity, therapeutic Index (TI). […]

[2] = drug toxicity control in uninfected MDBK cells (MTS staining); type: cell-based; conditions: bovine
Protocol: as §1, §2, §3, §4, §5, §6
The toxicity of each sample compound was analyzed with a in-house computer program and the cytopathic effect (CPE), followed by calculating % cell activity, therapeutic Index (TI).
In table 2, EC50 means the dosage at which the desired response is present for 50% of the population, i.e., the concentration of the sample compounds at which the BVDV infection was inhibited for 50% of MDBK cells; TC50 means the dosage at which cell death is induced for 50% of the population, i.e., the cytotoxicity of the sample compounds for MDBK cells. TI (TC50/EC50) means a comparison of the amount of a therapeutic agent that causes the therapeutic effect to the amount that causes toxic effects. Quantitatively, it is the ratio given by the dose required to produce the toxic effect divided by the therapeutic dose.

[3] = concentration at which BVDV infection was inhibited for 50% of MDBK cells, 6 days, MTS

With NC(=O)c1ncn([C@@H]2O[C@H](CO)[C@@H](O)[C@H]2O)n1 [Ribavirin, reference compound] the pEC50 [1, 3] was 5.78, the “TI (TC50/EC50)” value [1] was 4.2 and the CC50 at 6 days ([2]; uninfected MDBK cells (drug toxicity control wells), cytotoxicity for MDBK cells, 6 days, MTS, read-out: MDBK TC50) was 7 µM.
For Cc1cc(C)cc(Sc2c(C(C)C)c(=O)[nH]c(=O)n2CC2CC2)c1 [Sample 1a, 1-cyclopropylmethyl-6-(3,5-dimethyl-phenylsulfanyl)-5-isopropyl-1H-pyrimidine-2,4-dione], the pEC50 [1, 3] was 5.80, the “TI (TC50/EC50)” value [1] was 4.2 and the CC50 at 6 days [2] was 6.6 µM.
With CCc1c(Oc2cc(C)cc(C)c2)n(CC2CC2)c(=O)[nH]c1=O [Sample 1b, 1-cyclopropylmethyl-6-(3,5-dimethyl-phenoxy)-5-ethyl-1H-pyrimidine-2,4-dione] the pEC50 [1, 3] was 4.85, the “TI (TC50/EC50)” value [1] was >7.1 and the CC50 at 6 days [2] was > 100 µM.
With Cc1cc(C)cc(Sc2c(C(C)C)c(=O)[nH]c(=O)n2CC2CCC2)c1 [Sample 1c, 1-cyclobutylmethyl-6-(3,5-dimethyl-phenylsulfanyl)-5-isopropyl-1H-pyrimidine-2,4-dione] the pEC50 [1, 3] was 5.84, the “TI (TC50/EC50)” value [1] was 4.58 and the CC50 at 6 days [2] was 6.6 µM.
In the case of Cc1cc(C)cc(Sc2c(C(C)C)c(=O)[nH]c(=O)n2CC2CCCC2)c1 [Sample 1d, 1-cyclopentylmethyl-6-(3,5-dimethyl-phenylsulfanyl)-5-isopropyl-1H-pyrimidine-2,4-dione], the pEC50 [1, 3] was 4.86, the “TI (TC50/EC50)” value [1] was >3.7 and the CC50 at 6 days [2] was > 50 µM.
In the case of Cc1cc(C)cc(Sc2c(C(C)C)c(=O)[nH]c(=O)n2CC2=CCCC2)c1 [Sample 1e, 1-cyclopent-1-enymethyl-6-(3,5-dimethyl-phenylsulfanyl)-5-isopropyl-1H-pyrimidine-2,4-dione], the pEC50 [1, 3] was 4.99, the “TI (TC50/EC50)” value [1] was >4.9 and the CC50 at 6 days [2] was > 50 µM.
For CCc1c(Oc2cc(C)cc(C)c2)n(CC2=CCCC2)c(=O)[nH]c1=O [Sample 1f, 1-cyolopent-1-enymethyl-6-(3,5-dimethyl-phenoxy)-5-ethyl-1H-pyrimidine-2,4-dione], the pEC50 [1, 3] was 5.82, the “TI (TC50/EC50)” value [1] was >66.3 and the CC50 at 6 days [2] was > 100 µM.
With Cc1cc(C)cc(Oc2c(C(C)C)c(=O)[nH]c(=O)n2CC2=CCCC2)c1 [Sample 1g, 1-cyclopent-1-enymethyl-6-(3,5-dimethyl-phenoxy)-5-isopropyl-1H-pyrimidine-2,4-dione] the pEC50 [1, 3] was 4.70, the “TI (TC50/EC50)” value [1] was >2.5 and the CC50 at 6 days [2] was > 50 µM.
With CCc1c(C(=O)c2cc(C)cc(C)c2)n(CC2=CCCC2)c(=O)[nH]c1=O [Sample 1h, 1-cyclopent-1-enymethyl-6-(3,5-dimethyl-benzoyl)-5-ethyl-1H-pyrimidine-2,4-dione] the pEC50 [1, 3] was 4.86, the “TI (TC50/EC50)” value [1] was 1.2 and the CC50 at 6 days [2] was 17.1 µM.
In the case of Cc1cc(C)cc(C(=O)c2c(C(C)C)c(=O)[nH]c(=O)n2CC2=CCCC2)c1 [Sample 1i, 1-cyclopent-1-enymethyl-6-(3,5-dimethyl-benzoyl)-5-isopropyl-1H-pyrimidine-2,4-dione], the pEC50 [1, 3] was 5.87, the “TI (TC50/EC50)” value [1] was 15.0 and the CC50 at 6 days [2] was 20.5 µM.
For CC(C)c1c(Sc2ccccc2)n(CC2CC=CC2)c(=O)[nH]c1=O [Sample 1j, 1-cyclopent-3-enymethyl-5-isopropyl-6-phenylsulfanyl-1H-pyrimidine-2,4-dione], the pEC50 [1, 3] was 4.86, the “TI (TC50/EC50)” value [1] was >3.7 and the CC50 at 6 days [2] was > 50 µM.
In the case of Cc1cc(C)cc(Sc2c(C(C)C)c(=O)[nH]c(=O)n2CC2CCCCC2)c1 [Sample 1k, 1-cyclohexylmethyl-6-(3,5-dimethyl-phenylsulfanyl)-5-isopropyl-1H-pyrimidine-2,4-dione], the pEC50 [1, 3] was 5.89, the “TI (TC50/EC50)” value [1] was 5.11 and the CC50 at 6 days [2] was 6.6 µM.
With Cc1cc(C)cc(Sc2c(C(C)C)c(=O)[nH]c(=O)n2CCC2CCCC2)c1 [Sample 1l, 1-(2-cyclopentyl-ethyl)-6-(3,5-dimethyl-phenylsulfanyl)-5-isopropyl-1H-pyrimidine-2,4-dione] the pEC50 [1, 3] was 4.85, the “TI (TC50/EC50)” value [1] was >3.6 and the CC50 at 6 days [2] was > 50 µM.
With Cc1cc(C)cc(Oc2c(C(C)C)c(=O)[nH]c(=O)n2CCC2C=CCC2)c1 (stereo not drawn) [Sample 1m, 1-(2-cyclopent-2-enyl-ethyl)-6-(3,5-dimethyl-phenoxy)-5-isopropyl-1H-pyrimidine-2,4-dione] the pEC50 ([1]; MDBK) was 4.87, the “TI (TC50/EC50)” value [1] was >3.7 and the CC50 at 6 days [2] was > 50 µM.
For Cc1cc(C)cc(C(=O)c2c(C(C)C)c(=O)[nH]c(=O)n2CCC2C=CCC2)c1 (stereo not drawn) [Sample 1o, 1-(2-cyclopent-2-enyl-ethyl)-6-(3,5-dimethyl-benzoyl)-5-isopropyl-1H-pyrimidine-2,4-dione], the pEC50 ([1]; MDBK) was 5.73, the “TI (TC50/EC50)” value [1] was 3.73 and the CC50 at 6 days [2] was 6.94 µM.
With CCc1c(C(=O)c2cc(C)cc(C)c2)n(CC2=CCC(CO)C2)c(=O)[nH]c1=O (stereo not drawn) [Sample 1p, 6-(3,5-dimethyl-benzoyl)-5-ethyl-1-(4-hydroxymethyl-cyclopent-1-enylmethyl)-1H-pyrimidine-2,4-dione] the pEC50 [1, 3] was 4.82, the “TI (TC50/EC50)” value [1] was 5.11 and the CC50 at 6 days [2] was 66 µM.
